The record followed here is patent US20140112882A1, “Methods to treat pancreatic inflammation and associated lung injury through regulation of pancreatic interleukin-22 expression” (The Board of Trustees of the Leland Stanford Junior …, priority 2012, published 2014).

Test [1] has as its system CDE-induced acute pancreatitis. Briefly: CDE-diet-induced acute pancreatitis model. It counts as in vivo, Balb/c mice. On the procedure:
(§1) Mice including Balb/c, C57B6/J and AhR^d were purchased from Jackson laboratory and housed under pathogen-free conditions. All animal experiments were approved by Stanford University institutional animal care and use committees. Acute pancreatitis models. For caerulein-induced pancreatitis, age and sex matched mice were fasted for 12-16 hours. Mice then received 7 hourly intra-peritoneal injections of saline (control) or 50 μg/kg caerulein in saline and followed up to 12 h or indicated times. For the choline-deficient diet supplemented with DL-ethionine (CDE-diet) model of pancreatitis, young female mice (16-20 g) were fasted then fed a choline-deficient diet (Harlan Teklad) supplemented with 0.5% DL-ethionine (Sigma-Aldrich) or normal chow (control group) (Habtezion et al. (2011), Nakamichi et al., 2005).
(§2) Mice were given PBS or recombinant IL-22 (200 ng/mouse, 1 ng/μl, Miltenyi Biotech) intra-peritoneally at 24 h after onset of CDE-diet-induced acute pancreatitis. For experiments involving anti-IL-22 mAb, mice were treated with 1 μg of either anti-IL-22 or isotype control mAb (R&D Systems) at indicated times. CH-223191 (100 μg/mouse, 0.5 μg/μl, Sigma-Aldrich) was dissolved in DMSO and Biliverdin hydrochloride (35 mg/kg, Frontier Scientific) in 20 mM NaOH adjusted to pH of 7.0. CH-223191, Biliverdin hydrochloride, or vehicle control were used to treat normal mice or mice undergoing AP at indicated times.
Mice were euthanized by CO2 inhalation. Pancreata and other tissues were rapidly removed. Pancreas and lung pieces were immediately fixed in 10% formalin and embedded in paraffin. Fixed tissues were sectioned and stained with hematoxylin and eosin (H&E; performed by Histo-Tec Laboratory). The severity of pancreatitis and lung injury were scored blindly as described previously (Habtezion et al. (2011), Nakamichi et al., 2005). Other pancreas pieces were frozen in Tissue-Tek OCT compound and sectioned for fluorescence staining Immunofluorescence staining for p-STAT3 (Cell Signaling) and DAPI (nuclei) was performed according to manufacturer's guidelines. TUNEL assay was performed according to the manufacturer's instructions (ApopTag® Red In Situ Apoptosis Detection Kit, Millipore).
Blood was collected by intracardiac puncture, and serum was isolated for subsequent lipase level determination by diagnostic laboratory at Stanford University. Lung tissues were collected and MPO assay performed according to manufacture's guidelines (Biovision).
(§3) Mouse pancreata were isolated and frozen immediately in liquid nitrogen. Total tissue and primary pancreatic acinar cells, isolated as described below, were homogenized in RIPA buffer containing protein inhibitors and analyzed by western blot as described previously (Nakamichi et al., 2005; Xue et al., 2010). IL-22RA1 and cleaved caspase-3 antibodies were purchased from Abcam and Cell Signaling, respectively. Supernatant from pancreas homogenate was analyzed using ELISA kit for mouse IL-22 (Biolegend).

A further test relates to pancreatic IL-22. Briefly: Pancreatic IL-22 production in mice (flow cytometry of pancreatic leukocytes, ELISA). It counts as in vivo, Balb/c mice. As to conditions: day 3, vs vehicle. On the procedure:
as §2
Mouse pancreata were isolated and frozen immediately in liquid nitrogen. Total tissue and primary pancreatic acinar cells, isolated as described below, were homogenized in RIPA buffer containing protein inhibitors and analyzed by western blot as described previously (Nakamichi et al., 2005; Xue et al., 2010). […] Supernatant from pancreas homogenate was analyzed using ELISA kit for mouse IL-22 (Biolegend). […]
For surface staining, cells were stained with the following antibodies (Biolegend): AF700 or FITC CD45.2, PE/Cy7-CD3, PE/Cy7-CD19, APC/Cy7-CD4, FITC-CD90, Percp/Cy5.5-CD11b, APC-Sca-1, PB-CD11c, APC/Cy7-NK1.1 and APC-NKp46. […] Flow cytometry data collection was performed on Fortessa LSRII (BD Biosciences) and analyzed using FlowJo software (Tree Star, Inc.).
For orientation: In flow cytometry, cells or beads pass a laser one at a time.

The next test concerns STAT3. Briefly: STAT3 phosphorylation in tissues after systemic rIL-22 (western blot, immunofluorescence). It counts as in vivo, Balb/c mice. Conditions: rIL-22 200 ng/mouse systemically; 1 h; compared to other tissues. On the procedure:
as §2
Mice were euthanized by CO2 inhalation. Pancreata and other tissues were rapidly removed. […] The severity of pancreatitis and lung injury were scored blindly as described previously (Habtezion et al. (2011), Nakamichi et al., 2005). Other pancreas pieces were frozen in Tissue-Tek OCT compound and sectioned for fluorescence staining Immunofluorescence staining for p-STAT3 (Cell Signaling) and DAPI (nuclei) was performed according to manufacturer's guidelines. […]
Mouse pancreata were isolated and frozen immediately in liquid nitrogen. Total tissue and primary pancreatic acinar cells, isolated as described below, were homogenized in RIPA buffer containing protein inhibitors and analyzed by western blot as described previously (Nakamichi et al., 2005; Xue et al., 2010). […]
(In general: A western blot detects proteins with antibodies after separation by electrophoresis.)

The test system of another test is pancreatic acinar cells. Briefly: pSTAT3 induction in isolated primary pancreatic acinar cells (western blot). It is filed as cell-based, Balb/c mice. Conditions: 10 ng/ml for 0-30 min; 0-100 ng/ml for 15 min. The protocol: as §3
(§4) Mice were sacrificed and pancreata removed carefully by trimming fat and mesentery. Dispersed pancreatic acinar cells were isolated using a collagenase digestion method described previously (Menozzi et al. 1990). Isolated primary pancreatic acinar cells were treated in vitro with either rIL-22 or vehicle control (PBS) for up to 4 hours following isolation. Pancreatic leukocytes were prepared with minor modifications of the method developed by Hawkins (Hawkins et al., 1996). Briefly, 3-4 pancreata were pooled together and minced with scissors, then washed twice with buffer A (HBSS+10% FCS). The tissue was resuspended in buffer A containing 2 mg/ml collagenase type IV (Sigma-Aldrich) and incubated in a shaker at 37° C. for 15 min. […]

Test [2] relates to RegIII genes, SAA3, β-defensin2, IL-22RA1 in pancreas. Briefly: Quantitative PCR of pancreas mRNA 24 h after rIL-22. It is filed as in vivo, Balb/c mice. Conditions: 200 ng/mouse i.p., vs PBS. On the procedure: Pancreatic tissue was lysed with Trizol reagent (Invitrogen) for total RNA preparation according to manufacturer's instructions. Briefly, cDNA was generated using GoScript reverse transcription system (Promega). Quantitative PCR was performed with an ABI-7900 Sequence Detection System (Applied Biosystems) using designed specific TaqMan probes and primers as follows: RegIIIβ (Forward, 5′-[…]-3′; Reverse, 5′-[…]-3′; Probe, 5′-[…]-3′); RegIIIγ (Forward, 5′-[…]-3′; Reverse, 5′-TGGGTTCATAGCCCAGTGT-3′; Probe, 5′-[…]-3′); β-defensin2 (Forward, 5′-[…]-3′; Reverse, 5′-[…]-3′; Probe, 5′-[…]-3′); SAA3 (Forward, 5′-[…]-3′; Reverse, 5′-[…]-3′; Probe, 5′-[…]-3′); IL-22RA1 (Forward, 5′-[…]-3′; Reverse, 5′-[…]-3′; Probe, 5′-[…]-3′).

The test system of test [3] is primary pancreatic acinar cells. Briefly: Spontaneous apoptosis of primary pancreatic acinar cells in vitro (cleaved caspase-3 western blot). It is filed as cell-based, mice. As to conditions: rIL-22 for 2 h or 4 h in vitro; vs PBS. The protocol: as §3, §4
Test [4] concerns caerulein-induced acute pancreatitis. Briefly: Caerulein-induced acute pancreatitis in AhR non-responsive (AhR^d) mice. It is filed as in vivo, AhR^d mice (C57BL/6 background). As to conditions: rIL-22 single dose 200 ng/mouse, vs vehicle control. On the procedure: as §1
Mice were euthanized by CO2 inhalation. Pancreata and other tissues were rapidly removed. Pancreas and lung pieces were immediately fixed in 10% formalin and embedded in paraffin. […] The severity of pancreatitis and lung injury were scored blindly as described previously (Habtezion et al. (2011), Nakamichi et al., 2005). Other pancreas pieces were frozen in Tissue-Tek OCT compound and sectioned for fluorescence staining Immunofluorescence staining for p-STAT3 (Cell Signaling) and DAPI (nuclei) was performed according to manufacturer's guidelines. […]

Where [5] appears, read: 200 ng/mouse 24 h after CDE feeding, 60 h, vs PBS.

`Cc1ccccc1N=Nc1ccc(NC(=O)c2ccnn2C)c(C)c1` [CH-223191, 2-methyl-2H-pyrazole-3-carboxylic acid (2-methyl-4-o tolylazo-phenyl)-amide, reference compound]: the Mortality entry in test [1] (pretreated before CDE feeding, by day 3, relative to control treated mice) was “increased mortality”. For the same compound, the “Severity of acute pancreatitis (serum lipase, H&E, histologic score)” value in test [1] (pretreated daily for two days before CDE feeding, analyzed at day 2, vs vehicle) is on record as “considerably more severe acute pancreatitis”. Also, the “Frequency of IL-22-expressing leukocytes in the pancreas” value in the test on pancreatic IL-22 (100 μg/mouse on two consecutive days, flow cytometry and ELISA) is “markedly decreased”.

As to `C=CC1=C(C)/C(=C/C2=NC(=C\c3[nH]c(/C=C4\NC(=O)C(C)=C4C=C)c(C)c3CCC(=O)O)/C(CCC(=O)O)=C2C)NC1=O` [biliverdin, reference compound], the “Protection against acute pancreatitis (serum lipase, histologic assessment)” value in test [1] (single dose 24 h after CDE-diet feeding, sacrificed at 60 h, vs vehicle) is “protected against acute pancreatitis”. Further, in the test with pancreatic IL-22 (biliverdin 35 mg/kg on day 1 and 2, ELISA and flow cytometry), the “Pancreatic IL-22” value was “significant increase”.

With “rIL-22: recombinant IL-22 (Miltenyi Biotech), cytokine of the IL-10 family”, the “STAT3 activation (p-STAT3) in the pancreas” value in the test on STAT3 is given as “Significant STAT3 activation”. In addition, in the test on pancreatic acinar cells, the “pSTAT3 induction in pancreatic acinar cells” value was “induced by rIL-22 in pancreatic acinar cells in a time and dose dependent manner”. Moreover, in test [2], the “IL-22RA1 mRNA expression in pancreas” value is given as “no significant induction”, the “RegIIIβ (PAP1) mRNA expression in pancreas” value is listed as “stimulated the expression”, the “RegIIIγ (PAP3) mRNA expression in pancreas” value is listed as “stimulated the expression” and the “SAA3 mRNA expression in pancreas” value was “no significant induction”. Moreover, the “β-defensin2 mRNA expression in pancreas” value in test [2] was “no significant induction”. Further, in test [1] (200 ng/mouse 24 h after CDE feeding, 60 h, mean±SEM, P=0.028 vs control), the “Blinded lung histology score” value is 1.6±0.24. In test [1] (setting [5]), the “Lung myeloperoxidase (MPO) levels” value is reported as “significantly reduced” and the “Morphologic evidence of lung injury” value was “significantly reduced”. Further, the “Pancreatitis severity, histologic examination and blinded scoring of pancreata” value in test [1] (200 ng/mouse 24 h after CDE feeding, 60 h, vs vehicle) is “less severe pancreatitis”. Moreover, in test [1] (200 ng/mouse i.p. 24 h after CDE feeding, harvest at 60 h, vs PBS), the Serum lipase levels entry is “significantly lower”. The “Pancreatic IL-22 level by ELISA after systemic administration” value in test [1] (60 h following CDE feeding) is recorded as “Effective reconstitution”. Besides, the Mortality entry in test [1] (rIL-22 24 h after CDE feeding, followed to 72 h, vs PBS) is “lower mortality”. In addition, the “Apoptosis in pancreas (TUNEL assay)” value in test [1] (rIL-22 24 h after CDE feeding, pancreas at 60 h) was “significantly reduced apoptosis”. The “Spontaneous apoptosis of acinar cells (cleaved caspase-3)” value in test [3] is on record as “delayed spontaneous apoptosis”. Moreover, in test [4], the “Pancreatic injury (H&E)” value was “decrease” and the Serum lipase levels result is recorded as “decrease”.
